Measured values taken from patent US20150366962A1 (priority 2014, published 2015).

How the values were obtained:
OVA = OVA immunization: splenocyte IFN-γ ELISA and ELISpot; type: in vivo, C57BL/6 mice
Protocol: AddaVax and vehicle were used as controls. The sera were collected on day 35, and the serum IgG1 (A) and IgG2c (B) levels were tested. (C) Splenocytes were incubated with OVA (100 μg/ml) for 3 days, and IFN-γ levels in the culture supernatants were determined by ELISA. Data were pooled from three experiments showing similar trends. (D and E) Myd88^−/−, Tri^flps/lps, or wild-type mice (n=8/group) were i.m. immunized with ovalbumin mixed with the indicated adjuvant or vehicle in a 50-μl volume on days 0 and 14. On day 35, splenocytes were incubated with OVA MHC class I peptides (OVA257-264) (D) or class II peptides (OVA323-339) (E) overnight, and IFN-γ-producing cells were detected by ELISpot assay. The data shown are pooled from 2 or 3 independent experiments showing similar trends. *, P 0.05 compared to no adjuvant (A to C) or the WT (D and E) by one-way ANOVA with Dunnett's post hoc testing.
Vehicle (10% DMSO in saline) and AddaVax (1:1 ratio with antigen in saline) were used as controls. Sera were collected on days 0, 7, 14, 21, 28, and 35. Mice were sacrificed on day 35, and the spleens were harvested. Approximately 2.5×10^6/ml spleen cells was dispersed into round-bottom microtiter plates in triplicate in a total volume of 200 μl complete RPMI 1640 and restimulated with either 100 μg/ml OVA or medium alone. The cultures were then incubated at 37° C., 5% CO2, and the supernatants were harvested after 72 h. The levels of gamma interferon (IFN-γ) in the culture supernatants were measured by ELISA (BD Bioscience, San Jose, Calif.) according to the manufacturer's instructions. In parallel, splenocytes were stimulated with 10 μg/ml OVA class I (OVA257-264) or class II (OVA323-339) peptide on anti-IFN-γ antibody-coated enzyme-linked immunospot (ELISpot) plates for 18 h. The results are reported as numbers of IFN-spot-forming cells (SFC) per million cells as described below.

PBMC = assay: IL-8 release by human PBMC; type: cell-based
Description: To confirm the activities of 1Z105/1V270 combined adjuvant in human cells, PBMC were stimulated with these agonists.

PR/8 virus / PR/8 HA = assay: Long-term memory response after rPR/8 HA: HAI titers, B cell and IFN-γ ELISpot; type: in vivo, BALB/c mice
Protocol: (A) BALB/c mice were i.m. immunized with rPR/8 HA (5 μg/animal) on day 0 with the indicated adjuvant or vehicle, and sera were collected every 3 weeks (red drops). (B) Levels of antigen-specific total IgG were measured by ELISA. (C) The serum HAI titer to PR/8 virus was assayed at 6 weeks after immunization, with a detection limit of 1:40 serum dilution; nd, not detectable. (D and E) Eighteen weeks after immunization, mice (n=5/group) were administered 10 mLD50 of PR/8 virus and monitored for morbidity, as measured by body weight loss (D), and mortality (E) induced by the viral challenge. […]
AddaVax was used at a 1:1 ratio with antigen in PBS. […] IFN-γ spot-forming cells were detected with the IFN-γ ELISpot ALP kit (3321-2A; Mabtech, Cincinnati, Ohio). Antigen specific B cells from splenocytes were quantified 5 days after reexposure to antigen (5 μg of rPR/8HAin PBS only administered i.m.) by plating them on ELISpot plates coated with rPR/8 protein (Strep tag purified) for 20 h, and detection of secreted antibody was performed with an anti-mouse IgG secondary antibody conjugated to horseradish peroxidase (HRP).
Anti-OVA antibodies of the IgG subclasses IgG1 and IgG2c were measured by ELISA. Each ELISA plate contained a titration of a previously quantitated serum to generate a standard curve. […] Total IgG, IgG1, and IgG2a were detected.

Structure (SMILES)	dependence of increased antigen-specific T cell frequencies on MyD88 and TRIF (OVA; Myd88-/- and TrifLps2/Lps2 versus wild-type mice)	frequencies of IFN-γ-releasing T cells specific for OVA class I peptide (ELISpot) (OVA; OVA257-264, day 35 splenocytes)	frequencies of IFN-γ-releasing T cells specific for OVA class II peptide (ELISpot) (OVA; OVA323-339, day 35 splenocytes)	OVA-specific IFN-γ release by T cells restimulated ex vivo (OVA; splenocytes, OVA 100 μg/ml, 3 days, ELISA)	IL-8 release by PBMC (PBMC)	antigen-specific IFN-γ-producing T cells (ELISpot) (PR/8 virus / PR/8 HA; splenocytes 6 months after immunization, PR/8 HA peptide pool overnight)	fold increase in HAI titer induced by the boost (PR/8 virus / PR/8 HA; 5 days after reexposure versus preboost)
CCCCCCCCC=CCCCCCCCC(=O)OCC(COP(=O)(O)OCCNC(=O)c1ccc(Cn2c(=O)[nH]c3c(N)nc(OCCOC)nc32)cc1)OC(=O)CCCCCCCC=CCCCCCCCC (centres unmarked) [Compound 1V270]	partially dependent upon the MyD88 and TRIF pathways	increased frequencies	increased frequencies	promoted OVA-specific IFN-γ release	minimal levels of IL-8	induced antigen-specific IFN-γ T cells that were long lived	
Cn1c2ccccc2c2nc(SCC(=O)NC3CCCCC3)n(-c3ccccc3)c(=O)c21 [Compound 1Z105]					minimal levels of IL-8		significant only in the 1Z105 group
